Measurements taken from US11919880B2, “HCV protease inhibitors” (The Regents of the University of California, priority 2020, dated 2024).
“And” between values parts separate entries of the source, which are not always exact repeats. Equal values may be shown once. Read-outs that look alike come from different tables or passages of the source.

Key:
[1] = test system: sub-genomic HCV GT1b replicon (BM4-5 FEO), GT1b WT; assay: HCV replicon assay (luciferase antiviral efficacy); type: cell-based, hepatitis C virus; conditions: BM4-5 FEO cells, 48 h, read-out: EC50 ± SD Gt 1b wt
Experimental: (§1) The 20 compounds from class C were tested […] for inhibition of viral replication (GT1b wild-type) in BM4-5 FEO cells and for mammalian cell cytotoxicity. The numbers of virus particles were evaluated by quantifying luciferase produced during the virus life cycle^41 while toxicity was evaluated using a cell viability assay. […] Prior to additional biochemical studies, several key chemical properties for each of the Class C molecules were determined.
Replicon construct. The BM4-5 replicon is a sub-genomic HCV GT1b replicon that contains adaptive mutation of serine in the NS5A region^41. The firefly luciferase gene was added into the BM4-5 replicon to generate BM4-5 FEO replicon. The construction procedures have been previously described^42.
(§2) Luciferase antiviral efficacy and cells viability assays. BM4-5 FEO replicon approximately 10,000 cells in 100 μL of medium were seeded into 96-well plates and incubate for 6 h for attachment. Then, the compounds were added at to the wells in specific concentration and incubate for 48 h. The luciferase assay (Bright-Glo; Promega) was carried out according to the manufacturer's instructions. Luciferase activity was determined using a microplate luminometer (Veritas microplate luminometer; Turner Biosystems). For cells viability assays, BM4-5 FEO at the density 10,000 cells in 100 μL medium was incubated at 37° C. for 6 h for attachment, then the compounds were added and incubated for another 48 hours. The number of living cells were measured by Cell Titer-blue assay (Promega). The fluorescence absorption (560Ex/590Em) for 96-well plate was read by Benchmark Scientific MR9600 with. The activity and toxicity of each compound were measured by at least six different concentrations in triplicate.

[2] = target: T1, recombinant HCV NS3/4A GT1b WT (Hepatitis C virus genotype 1b, UniProt Q9WMX2); assay: biochemical; type: biochemical
T1 construct: recombinant HCV NS3/4A GT1b WT
Experimental: (§3) In order to validate that this group of molecules elicit their cellular effects via inhibition of the viral protease, we incubated compounds 1, 12 and 22 with recombinant NS3/4A protease GT1b and an inhibitor-resistant mutant containing a D168A mutation. D168 is located in the S2 and S4 sub-pockets and mutations in these sub-pockets can cause significant resistance to the inhibitors resulting in decreased activity of peptidomimetic inhibitors^21,37-38. […] As a control, potency was evaluated using the approved HCV protease inhibitor, simeprevir.
(§4) HCV NS3/4A enzymatic inhibition assay. The activities of two proteases (recombinant HCV NS3/4A GT1b WT and full-length HCV NS3/4A GT1b D168A) were measured using a fluorogenic substrate, Ac-Glu-Glu-Val-Val-Ala-Cys-AMC (Sigma-Aldrich) where AMC corresponds to 7-amino-4-methylcourmarin. Assays were performed in 50 mM HEPES pH 7.4, 15 mM NaCl, 0.01% Triton X-100, 10 mM DTT in a black 384-well microplate (BD Falcon). […] Fluorescence was monitored at excitation and emission wavelengths of 360 nm and 460 nm in a Synergy™ HTX Multi-Mode Microplate Reader (BioTek). Data was visualized using Gen5™ Software (Biotek). The activity of enzyme was calculated from the change in relative fluorescence units (RFU) over time. For inhibition assays, compounds were pre-incubated with enzyme for 240 minutes prior to adding the enzyme/inhibitor mixture to the substrate. All assays were performed in triplicate wells.

[3] = target: T2, full-length HCV NS3/4A GT1b D168A (Hepatitis C virus genotype 1b, UniProt Q9WMX2, D1194A); assay: biochemical; type: biochemical
T2 construct: full-length HCV NS3/4A GT1b D168A; His tag; made in house; host or cells: E. coli Rosetta 2(DE3)
Experimental: as §3
(§5) Plasmid construction and purification of HCV NS3/A protein. Drug resistant mutant D168A was generated by mutagenesis using NS3-containing recombinant plasmid (pETDuet-1 Hepatis C Virus NS3/4A, a gift from Michael Johnson, Addgene plasmid #16196) as a template. The single mutation of aspartic acid (D) to alanine (A) was introduced by mutagenesis at position 168 using specific primers (Forward: 5′-[…]-3′ and Reverse: 5′-[…]-3′). The over expression and purification were preformed followed the method that previously described^43. Rosetta 2(DE3) cells (Novagen) containing the modified recombinant plasmid with histidine tag were grown in Lysogeny Broth medium. The over expression was introduced by addition of Isopropyl β-D-1-thiogalactopyranoside (IPTG) to the final concentration of 0.5 mM and the bacteria were incubated at room temperature for 16 h. […] The solution was passed through Ni-NTA column and washed by buffer B (50 mM HEPES, pH 7.6, 500 mM NaCl, 50 mM imidazole, 5 mM β-MCE, 0.2% Triton X-100, and 15% glycerol). The His-tag fused protein was eluted by buffer C (50 mM HEPES, pH 7.6, 500 mM of NaCl, 500 mM of imidazole, 5 mM β-MCE, 0.2% Triton X-100, and 15% glycerol) followed by dialysis using buffer (50 mM HEPES, pH 7.6 and 500 mM of NaCl). Purified NS3/4A protein was concentrated an d buffer exchanged into buffer D (50 mM HEPES, pH 7.6, 500 mM of NaCl, 5 mM β-MCE, 0.2% Triton X-100, and 50% glycerol) using a protein concentrator 10 k (Amicon®).
as §4

[4] = test system: BM4-5 human liver cells; assay: CellTiter-Blue cell viability assay; type: cell-based; conditions: BM4-5 FEO cells, 48 h, read-out: LC50 ± SD
Experimental: as §1, with “determined. Calculated polar surface area (PSA), lipophilicity (LogP), and molecular weight for each compound (Table IA) complied with the general criteria for drug-like molecules.” for “determined.”
as §2

[5] = test system: full-length HCV NS3/4A GT1b D168A; assay: biochemical; type: biochemical, hepatitis C virus; conditions: for IC50—D168A/IC50—wt ratio: D168A mutant versus wt protease
Experimental: as §3, §5, §4

[6] = Potentiometric titration, Sirius T3 instrument; type: physicochemical
Source text: As highlighted in Scheme 1, the tryptophan derived HCV NS3/4 protease inhibitors, 21 and 22, were synthesized starting from 3-(piperidine-1-yl)propan-1-amine (23), which could be accessed in two steps from commercially available N-(bromopropyl)phthalimide and piperidine, and N-Boc protected L-tryptophan (24). Thus, HBTU mediated coupling of […] and 24, followed by N-Boc deprotection and carbamoylation reaction with the appropriate isocyanate provided the desired compounds. 21 and 22. These test compounds were characterized by ^1H-NMR, ^13C-NMR, and HRMS. In addition, experimental pKa values, lipophilicity (LogP), and LogD7.4 of 22 were determined via potentiometric titrations using a Sirius T3 instrument. Compounds 21 and 22, as well as the 20 compounds from the primary screen, were then tested in cell-based assays to evaluate activity against HCV and toxicity to the host cells (Table 2).

[7] = target: T3, bovine trypsin (Bos taurus, UniProt P00760); assay: Counter-screening assay, trypsin; type: biochemical; conditions: 13.08 and 14.68, 5.2 μM of 1, 12, and 22, respectively; 40 nM enzyme
T3 construct: purchased Sigma
Experimental: (§6) In addition, we tested these compounds for inhibition against the fungal serine protease, proteinase K that is structurally related to several mammalian serine proteases such as the proprotein convertase enzymes and furin^44.
(§7) Counter-screening assay. Counter-screening assays were performed with 40 nM of bovine trypsin (Sigma), pig pancreatic elastase (Sigma), human chymotrypsin and proteinase k and 60 μM of the appropriate fluorogenic substrates for trypsin, elastase, chymotrypsin, and proteinase K are Boc-Leu-Arg-Arg-AMC (trypsin), Me-Arg-Arg-Pro-Val-AMC (elastase) and Suc-Arg-Arg-Pro-Phe-AMC (chymotrypsin and proteinase K). Assays were performed in 50 mM HEPES pH 7.4, 15 mM NaCl, 0.01% Triton X-100 in black 96-well microplates (BD Falcon) at a final volume of 50 μL. The final concentration of DMSO in each well was 2.5%. Fluorescence was measured as outlined above.

[8] = target: T4, pig pancreatic elastase (Sus scrofa, UniProt P00772); assay: Counter-screening assay, elastase; type: biochemical; conditions: 13.08 and 14.68, 5.2 μM of 1, 12, and 22, respectively; 40 nM enzyme
T4 construct: purchased Sigma
Experimental: as §6, §7

[9] = target: human chymotrypsin (Homo sapiens, UniProt P17538); assay: Counter-screening assay, chymotrypsin; type: biochemical; conditions: 13.08 and 14.68, 5.2 μM of 1, 12, and 22, respectively; 40 nM enzyme
Experimental: as §6, §7

[10] = target: proteinase K (Parengyodontium album, UniProt P06873); assay: Counter-screening assay, proteinase K; type: biochemical, fungal; conditions: 13.08 and 14.68, 5.2 μM of 1, 12, and 22, respectively; 40 nM enzyme
Experimental: as §6, §7

[11] = 40 nM enzyme, 60 μM Ac-Glu-Glu-Val-Val-Ala-Cys-AMC, 240 min pre-incubation, read-out: IC50 GT1b WT
[12] = 40 nM enzyme, 60 μM Ac-Glu-Glu-Val-Val-Ala-Cys-AMC, 240 min pre-incubation, read-out: IC50 GT1b D168A

T1 sequence (Q9WMX2 1658-1711): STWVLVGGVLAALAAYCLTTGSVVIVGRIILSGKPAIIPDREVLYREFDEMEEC
T1 sequence (Q9WMX2 1027-1657): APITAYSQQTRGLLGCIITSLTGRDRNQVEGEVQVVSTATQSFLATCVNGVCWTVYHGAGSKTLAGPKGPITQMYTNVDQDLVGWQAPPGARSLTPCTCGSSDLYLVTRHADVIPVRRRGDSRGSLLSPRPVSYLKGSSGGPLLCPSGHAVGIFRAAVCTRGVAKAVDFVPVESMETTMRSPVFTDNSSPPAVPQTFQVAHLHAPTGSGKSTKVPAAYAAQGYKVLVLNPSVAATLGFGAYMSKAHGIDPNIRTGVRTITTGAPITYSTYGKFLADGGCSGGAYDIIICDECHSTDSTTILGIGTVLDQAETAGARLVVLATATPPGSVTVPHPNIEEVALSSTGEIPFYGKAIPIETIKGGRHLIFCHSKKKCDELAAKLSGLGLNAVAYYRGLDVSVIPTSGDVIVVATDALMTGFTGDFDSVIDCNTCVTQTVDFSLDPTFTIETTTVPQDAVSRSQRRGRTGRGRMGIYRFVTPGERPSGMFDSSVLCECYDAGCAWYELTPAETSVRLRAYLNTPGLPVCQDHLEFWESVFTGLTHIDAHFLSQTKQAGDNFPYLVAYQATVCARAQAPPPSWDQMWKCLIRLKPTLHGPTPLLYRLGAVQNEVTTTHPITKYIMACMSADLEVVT
T2 sequence (Q9WMX2 1027-1657, looked up, stated change not applied): as the sequence (Q9WMX2 1027-1657) above
T2 sequence (Q9WMX2 1658-1711, stated change not applied): as the sequence (Q9WMX2 1658-1711) above
Chain of proteinase K (P06873 106-384): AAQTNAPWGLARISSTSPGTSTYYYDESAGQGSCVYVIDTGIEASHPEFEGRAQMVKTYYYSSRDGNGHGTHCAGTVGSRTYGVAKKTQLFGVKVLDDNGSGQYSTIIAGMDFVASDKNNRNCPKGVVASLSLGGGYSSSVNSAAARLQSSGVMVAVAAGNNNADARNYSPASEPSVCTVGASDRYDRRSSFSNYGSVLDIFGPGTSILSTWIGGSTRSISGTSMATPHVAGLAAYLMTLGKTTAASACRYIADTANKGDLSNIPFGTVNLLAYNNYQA
T4 sequence (P00772 27-266): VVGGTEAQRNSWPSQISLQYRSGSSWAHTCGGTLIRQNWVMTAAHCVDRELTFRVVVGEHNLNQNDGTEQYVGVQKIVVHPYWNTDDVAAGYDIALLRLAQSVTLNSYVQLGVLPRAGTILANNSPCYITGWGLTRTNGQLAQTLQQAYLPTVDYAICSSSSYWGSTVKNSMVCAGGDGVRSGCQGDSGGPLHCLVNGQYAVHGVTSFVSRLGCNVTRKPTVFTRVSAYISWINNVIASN
Chain of human chymotrypsin (P17538 19-263): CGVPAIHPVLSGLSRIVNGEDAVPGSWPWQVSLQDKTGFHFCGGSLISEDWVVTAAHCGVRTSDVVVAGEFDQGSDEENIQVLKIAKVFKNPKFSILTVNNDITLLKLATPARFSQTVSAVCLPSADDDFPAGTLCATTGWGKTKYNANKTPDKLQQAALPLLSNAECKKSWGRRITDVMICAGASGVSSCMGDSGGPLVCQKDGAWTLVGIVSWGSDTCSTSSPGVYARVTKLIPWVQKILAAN
T3 sequence (P00760 24-246): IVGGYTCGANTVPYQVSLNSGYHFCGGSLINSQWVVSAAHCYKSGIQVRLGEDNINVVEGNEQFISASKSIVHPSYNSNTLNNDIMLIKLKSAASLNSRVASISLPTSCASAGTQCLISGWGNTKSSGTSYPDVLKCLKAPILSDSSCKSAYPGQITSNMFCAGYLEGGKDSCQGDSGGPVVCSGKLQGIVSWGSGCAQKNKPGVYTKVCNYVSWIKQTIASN

Row | Structure (SMILES) | EC50 [1] [µM] | CC50 [4] [µM] | also measured
1 | C[C@H]1CCCCN1CCCNC(=O)C(Cc1c[nH]c2ccccc12)NC(=O)Nc1cccc(Br)c1 (some centres unmarked) [Compound 1] | – | – | EC50 ([1]; Hepatitis C virus, GT1B): 0.95 ± 0.26 µM; IC50 [2]: 14.7 ± 1.23 µM; IC50 [3]: 11.4 ± 0.45 µM
2 | CC1CCCCN1CCCNC(=O)C(Cc1c[nH]c2ccc(F)cc12)NC(=O)Nc1cc(Cl)ccc1Cl (centres unmarked) [Compound 2] | 6.12 ± 2.3 | – | –
3 | CC1CCCCN1CCCNC(=O)C(Cc1c[nH]c2ccccc12)NC(=O)Nc1ccc(N(C)C)cc1 (centres unmarked) [Compound 6] | 63.4 ± 11 | > 100 | –
4 | Cc1ccc2[nH]cc(CC(NC(=O)Nc3cc(Cl)ccc3Cl)C(=O)NCCCN3CCCCC3C)c2c1 (centres unmarked) [Compound 7] | 6.35 ± 1.11 | – | –
5 | CC(=O)c1cccc(NC(=O)NC(Cc2c[nH]c3ccccc23)C(=O)NCCCN2CCCCC2C)c1 (centres unmarked) [Compound 8] | 10.9 ± 4.93 | > 100 | –
6 | COc1ccc(OC)c(NC(=O)NC(Cc2c[nH]c3ccccc23)C(=O)NCCCN2CCCCC2C)c1 (centres unmarked) [Compound 9] | 51.4 ± 15.2 | > 100 | –
7 | COc1ccc2[nH]cc(CC(NC(=O)Nc3cc(Cl)ccc3Cl)C(=O)NCCCN3CCCCC3C)c2c1 (centres unmarked) [Compound 10] | 33.2 ± 3.17 | > 100 | –
8 | O=C(Nc1ccccc1Br)NC(Cc1c[nH]c2ccccc12)C(=O)NCCCNC1CC2CCC1C2 (centres unmarked) [Compound 11] | 5.99 ± 2.61 | – | –
9 | CC(C)c1ccc(NC(=O)NC(Cc2c[nH]c3ccccc23)C(=O)NCCCN2CCCC[C@@H]2C)cc1 (some centres unmarked) [Compound 12] | – | – | EC50 ([1]; Hepatitis C virus, GT1B): 1.5 ± 0.07 µM; IC50 [2]: 13.1 ± 2.77 µM; IC50 [3]: 11.5 ± 0.55 µM
10 | CC1CCCCN1CCCNC(=O)C(Cc1c[nH]c2ccccc12)NC(=O)Nc1c(F)cc(Br)cc1F (centres unmarked) [Compound 13] | 35.4 ± 7.71 | – | –
11 | CC1CCCC(C)N1NCCCNC(=O)C(Cc1c[nH]c2ccccc12)NC(=O)Nc1ccccc1Br (centres unmarked) [Compound 14] | 5.15 ± 0.63 | – | –
12 | O=C(Nc1cccc(Br)c1)NC(Cc1c[nH]c2ccccc12)C(=O)NCCCNC1CCCCCC1 (centres unmarked) [Compound 15] | 6.82 ± 0.74 | – | –
13 | CCOC(=O)C1CCCCN1CCCNC(=O)C(Cc1c[nH]c2ccccc12)NC(=O)Nc1ccccc1Br (centres unmarked) [Compound 17] | 2.98 ± 1.08 | – | –
14 | O=C(Nc1ccccc1Br)NC(Cc1c[nH]c2ccccc12)C(=O)NCCCNC1CCCCC1O (centres unmarked) [Compound 18] | 4.58 ± 0.32 | – | –
15 | O=C(Nc1ccccc1Br)NC(Cc1c[nH]c2ccccc12)C(=O)NCCCNC1CCC(O)CC1 (centres unmarked) [Compound 19] | 32.6 ± 14.8 | > 100 | –
16 | O=C(Nc1cccc(Br)c1)N[C@@H](Cc1c[nH]c2ccccc12)C(=O)NCCCN1CCCCC1 [Compound 21] | 1.3 ± 1.25 | 29.5 ± 1.48 | –
17 | CC(C)c1ccc(NC(=O)N[C@@H](Cc2c[nH]c3ccccc23)C(=O)NCCCN2CCCCC2)cc1 [Compound 22] | 0.64 ± 0.13 | 47 ± 6.98 | IC50 [2, 11]: 5.2 µM and 4.6 µM; Potency lower than simeprevir ([2]; wt protease IC50 compared with simeprevir): 120 fold; IC50 [3, 12]: 5.98 ± 0.43 µM; IC50—D168A/IC50—wt ratio [5]: 1.4; Change in potency, D168A mutant versus wt protease ([5]; result in words): no significant reduction on potency; Experiment value of logP [6]: 4.1; Decrease of trypsin activity [7]: did not decrease activity; Decrease of elastase activity [8]: did not decrease activity; Decrease of chymotrypsin activity [9]: did not decrease activity; Decrease of proteinase K activity [10]: did not decrease activity
18 | COc1ccc2c(O[C@@H]3C[C@H]4C(=O)N[C@]5(C(=O)NS(=O)(=O)C6CC6)C[C@H]5/C=C\CCCCN(C)C(=O)[C@@H]4C3)cc(-c3nc(C(C)C)cs3)nc2c1C [Simeprevir, reference compound] | – | – | IC50 [2, 11]: 0.043 µM; IC50 [3, 12]: 0.247 ± 0.39 µM; IC50—D168A/IC50—wt ratio [5]: 5.7
